Results as given in US7868135B2, “Compositions of lipopeptide antibiotic derivatives and methods of use thereof” (priority 2003, dated 2011).

Legend:
[1] = system: Streptococcus pneumoniae SPN0002 (PISP); test: Broad spectrum MIC, Table 17/18 column J; type: cell-based; conditions: condition J of Table 17, in µg/mL
How it was run: (§1)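 Broth microdilution MIC per NCCLS M7-A6, modified to use doubling serial dilutions of compound. Media conditions varied per column.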

[2] = In vivo half-life after single i.v. administration, mice; conditions: female, Swiss CD1, mouse, plasma, iv, 10 mg/kg
[3] = system: Enterococcus faecium EFM0101 (VRE, MDR); test: Broad spectrum MIC, Table 17/18 column A; type: cell-based; conditions: condition A of Table 17, in µg/mL
How it was run: as §1

[4] = system: Enterococcus faecalis EFS0004 (VSE); test: Broad spectrum MIC, Table 17/18 B, C, D (CAMHB; + 0.625 mM calcium; + calcium and 30% bovine serum); type: cell-based; conditions: in µg/mL; for MIC, media condition B: condition B: CAMHB; for MIC, media condition C: condition C: + 0.625 mM calcium; for MIC, media condition D: condition D: + calcium and 30% bovine serum
How it was run: as §1

[5] = system: Streptococcus pyogenes SPY0001 (PenS); test: Broad spectrum MIC, Table 17/18 column M; type: cell-based; conditions: condition M of Table 17, in µg/mL
How it was run: as §1

[6] = system: Streptococcus pneumoniae SPN0023 (PRSP); test: Broad spectrum MIC, Table 17/18 column K; type: cell-based; conditions: condition K of Table 17, in µg/mL
How it was run: as §1

[7] = system: Staphylococcus aureus SAU0017 (MSSA); test: Broad spectrum MIC, Table 17/18 columns E, F (+ 0.625 mM calcium; + calcium and 30% bovine serum); type: cell-based; conditions: in µg/mL; for MIC, media condition E: condition E: + 0.625 mM calcium; for MIC, media condition F: condition F: + calcium and 30% bovine serum
How it was run: as §1

[8] = system: Staphylococcus epidermidis SEP0375 (MRSE); test: Broad spectrum MIC, Table 17/18 column I; type: cell-based; conditions: condition I of Table 17, in µg/mL
How it was run: as §1

[9] = system: Staphylococcus aureus SAU0031 (VISA); test: Broad spectrum MIC, Table 17/18 column G; type: cell-based; conditions: condition G of Table 17, in µg/mL
How it was run: as §1

[10] = system: Staphylococcus aureus SAU0065 (MRSA); test: Broad spectrum MIC, Table 17/18 column H; type: cell-based; conditions: condition H of Table 17, in µg/mL
How it was run: as §1

[11] = system: Streptococcus pneumoniae SPN0032 (PSSP); test: Broad spectrum MIC, Table 17/18 column L; type: cell-based; conditions: condition L of Table 17, in µg/mL
How it was run: as §1

[12] = system: S. aureus Smith (SAU0017, ATCC 19636); test: Intraperitoneal murine model of protection against infection (ED50, Table 21); type: in vivo, Staphylococcus aureus; conditions: Swiss CD1 mice infected i.p., compound i.v.

SMILES	MIC, media condition J [1]	half-life [2] [h]	MIC, media condition A [3]	MIC, media condition B [4]	MIC, media condition C [4]	MIC, media condition D [4]	MIC, media condition M [5]	MIC, media condition K [6]	MIC, media condition E [7]	MIC, media condition F [7]	MIC, media condition I [8]	MIC, media condition G [9]	MIC, media condition H [10]	MIC, media condition L [11]	ED50 in Mice, S. aureus (SAU0017) [12] [mg/kg]
CCCCCCCCCCCCCCC(=O)NC(CC(=O)O)C(=O)NC1C(=O)N2CCCCC2C(=O)NC(C(C)C(=O)O)C(=O)NC(CC(=O)O)C(=O)NCC(=O)NC(CC(=O)O)C(=O)NCC(=O)NC(C(C)NC(=O)CNC(=O)[C@@H](N)CCCCN)C(=O)NC(C(C)C)C(=O)N2CCCC2C(=O)NC1C (stereo partly drawn) [Compound 4, C15-Amphomycin-9-Gly-Lys]	0.25	0.752	1	1-4	1-2	>64	0.25	0.25	0.5-1	4	1-2	8	1-4	0.25-0.5	6.2
CCCCCCCCCCCCCCC(=O)NC(CC(=O)O)C(=O)NC1C(=O)N2CCCCC2C(=O)NC(C(C)C(=O)O)C(=O)NC(CC(=O)O)C(=O)NCC(=O)NC(CC(=O)O)C(=O)NCC(=O)NC(C(C)NC(=O)CN(C)C(=O)[C@@H](N)CCCCN)C(=O)NC(C(C)C)C(=O)N2CCCC2C(=O)NC1C (stereo partly drawn) [Compound 199, C15-Amphomycin-9-Sar-Lys]	0.25	6.18	0.5-1	1-2	1-2	64	0.25	0.25	0.25-1	4-8	0.5-1	4-8	1-2	0.25-0.5	8
CCCCCCCCCCCCCCC(=O)NC(CC(=O)O)C(=O)NC1C(=O)N2CCCCC2C(=O)NC(C(C)C(=O)O)C(=O)NC(CC(=O)O)C(=O)NCC(=O)NC(CC(=O)O)C(=O)NCC(=O)NC(C(C)NC(=O)CCN)C(=O)NC(C(C)C)C(=O)N2CCCC2C(=O)NC1C (stereo not drawn) [Compound 147, C15-Amphomycin-9-(β-Ala)]	0.125	8.02	0.5-1	2	0.5-1	32	0.125	0.125	0.25-0.5	2	0.5-1	2	1	0.125	6.5
